The values that follow come from EP4385984A1, “PYRIDINE-N-OXIDES AS INHIBITORS OF NAV1.8” (Grünenthal GmbH, priority 2022, dated 2024).

Each structure is given as a SMILES string.

The target in this assay is T1, human NaV1.8 (Homo sapiens, UniProt Q9Y5Y9).
T1 construct: expressed in transfected cells; host or cells: HEK
T1 sequence (Q9Y5Y9 whole entry): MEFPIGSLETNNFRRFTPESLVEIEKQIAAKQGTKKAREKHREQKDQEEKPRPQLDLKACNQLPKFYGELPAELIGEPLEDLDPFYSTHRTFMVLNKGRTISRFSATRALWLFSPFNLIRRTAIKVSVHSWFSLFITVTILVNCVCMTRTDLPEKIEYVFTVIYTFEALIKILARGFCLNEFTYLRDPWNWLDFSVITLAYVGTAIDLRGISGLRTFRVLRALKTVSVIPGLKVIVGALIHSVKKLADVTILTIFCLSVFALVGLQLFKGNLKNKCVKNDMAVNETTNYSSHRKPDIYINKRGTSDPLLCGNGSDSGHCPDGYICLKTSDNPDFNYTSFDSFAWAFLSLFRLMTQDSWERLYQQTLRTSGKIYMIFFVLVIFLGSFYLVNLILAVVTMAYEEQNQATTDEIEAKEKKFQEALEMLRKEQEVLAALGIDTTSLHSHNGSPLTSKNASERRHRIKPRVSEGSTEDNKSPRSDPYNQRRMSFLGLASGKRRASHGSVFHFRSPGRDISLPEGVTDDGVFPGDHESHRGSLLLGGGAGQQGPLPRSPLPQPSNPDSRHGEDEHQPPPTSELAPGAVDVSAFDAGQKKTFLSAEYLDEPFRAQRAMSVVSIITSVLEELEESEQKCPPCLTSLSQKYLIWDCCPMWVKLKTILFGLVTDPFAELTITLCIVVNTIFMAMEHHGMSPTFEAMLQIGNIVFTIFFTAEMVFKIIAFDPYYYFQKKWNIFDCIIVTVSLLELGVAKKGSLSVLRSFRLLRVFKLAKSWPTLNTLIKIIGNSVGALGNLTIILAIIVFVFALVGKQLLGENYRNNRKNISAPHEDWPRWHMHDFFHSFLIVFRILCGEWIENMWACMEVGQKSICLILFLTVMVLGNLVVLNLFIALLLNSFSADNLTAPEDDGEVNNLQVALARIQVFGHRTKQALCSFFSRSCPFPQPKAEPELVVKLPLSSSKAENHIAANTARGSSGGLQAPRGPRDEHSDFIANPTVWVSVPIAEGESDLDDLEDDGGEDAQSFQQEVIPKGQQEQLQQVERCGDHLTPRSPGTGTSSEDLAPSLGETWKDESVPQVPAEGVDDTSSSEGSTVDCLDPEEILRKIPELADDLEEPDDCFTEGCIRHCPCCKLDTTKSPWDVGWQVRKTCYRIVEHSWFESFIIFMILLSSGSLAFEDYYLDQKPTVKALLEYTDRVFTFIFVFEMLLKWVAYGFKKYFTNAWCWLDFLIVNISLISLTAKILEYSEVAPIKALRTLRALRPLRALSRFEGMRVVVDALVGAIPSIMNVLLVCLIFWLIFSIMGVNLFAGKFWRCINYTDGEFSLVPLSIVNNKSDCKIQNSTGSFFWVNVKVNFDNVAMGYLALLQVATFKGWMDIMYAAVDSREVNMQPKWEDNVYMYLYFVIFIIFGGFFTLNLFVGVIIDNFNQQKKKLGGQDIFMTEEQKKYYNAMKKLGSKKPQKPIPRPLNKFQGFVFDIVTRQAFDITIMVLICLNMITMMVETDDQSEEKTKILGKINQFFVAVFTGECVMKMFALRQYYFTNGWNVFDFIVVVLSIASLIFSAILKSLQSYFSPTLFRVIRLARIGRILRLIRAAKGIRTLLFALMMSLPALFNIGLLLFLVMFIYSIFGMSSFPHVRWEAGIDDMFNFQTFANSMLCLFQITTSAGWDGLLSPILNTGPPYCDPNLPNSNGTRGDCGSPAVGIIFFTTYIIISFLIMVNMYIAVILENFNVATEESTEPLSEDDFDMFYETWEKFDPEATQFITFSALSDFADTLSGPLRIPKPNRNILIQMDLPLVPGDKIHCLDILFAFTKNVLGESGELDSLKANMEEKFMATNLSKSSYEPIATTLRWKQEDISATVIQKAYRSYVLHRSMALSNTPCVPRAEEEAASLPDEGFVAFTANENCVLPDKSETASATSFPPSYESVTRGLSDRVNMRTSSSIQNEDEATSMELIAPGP
Kind of assay: Electrophysiology: automated whole-cell voltage-clamp (patch clamp) recordings of sodium currents, Qube384. It counts as cell-based. The note with it: HEK-NaV1.8 (NM 006514.1) with b3 recombinant cell line, multi hole plates, ambient room temperature, read-out: Potency category (human NaV1.8 IC50). How it is done: The following NaV1.8 recombinant cell line was used for recordings: HEK-NaV1.8 (NM 006514.1) with b3 (NM_018400.3).
Sodium currents were measured using the patch clamp technique in the whole-cell configuration using the Qube384 (Sophion A/S, Copenhagen, Denmark) automated voltage clamp platform. "Multi hole" plates were used for the cell line expressing NaV1.8 while "single hole" plates were used for the recombinant cell lines expressing the other subtypes. Appropriate filters (for minimum seal resistance and minimum current size) and series resistance compensation (for high quality sodium channel recordings) were applied. Data was collected at ambient room temperature.
The recording […] solution contained (in mM): NaCl 145 mM, KCl 4 mM, CaCl2 2 mM, MgCh 1 mM, HEPES 10 mM, Glucose 10 mM, pH 7.4 (NaOH). The […] recording solution contained (in mM): CsF 120 mM, CsCl 20 mM, NaCl 10 mM, EGTA 10 mM, HEPES 10 mM, pH 7.2 (CsOH). Currents were recorded at 25 kHz sampling frequency and filtered at 5 kHz. Series resistance compensation was applied at 65%. Vehicle (VEH) is the control condition where cells are exposed to 0.3 % DMSO without compound. All runs include VEH controls being exposed to the same voltage protocols to assess non-compound related phenomena such as run down and then used to isolate compound dependent effects on currents.
To check for state-dependence inhibition, the following voltage-sequence was applied every 20 seconds: From a resting membrane potential of-120 mV, the first test pulse (P1; 20 ms to -10 mV) was applied to check for channels in the Resting State followed by a brief recovery (20 ms to -120 mV), then holding the membrane voltage to V1/2 (4 seconds at voltage to obtain half the channel at Rest and half Inactivated) with a subsequent second test pulse (P2; 20 ms to -10 mV) to check for channels in the Inactivated State, followed by another brief recovery (20 ms to -120 mV) and a final third test pulse (P3; 20 ms to -10 mV) to check for recovered channels.
To check for frequency-dependent inhibition, a 10 Hz protocol and a 20 Hz protocol were applied; namely,
From a resting membrane potential of -120 mV, 40-pulses (10 ms to -10 mV) was applied at 10 Hz (at 100 ms between pulses) and then at 20 Hz (at 50 ms between pulses).
Each parameter was recorded (P1, P2, P3, P40 from 10Hz and P40 from 20Hz) during a control period (lasting ~ 5 minutes) when establishing the baseline and during compound period (lasting ~ 12 minutes) when test compound (or vehicle) was applied. For each parameter, the value at the end of the compound period was normalized to the vehicle baseline; as follows Normalized Inhibition(NormCPD) = (CPD Valueend CPD period)/(VEH Valueend Control Period) [formula]
To adjust for any variance in the Na^+ current signal during the compound period (owing to cumulative inactivation independent of compound or shifts in biophysics over time), a dedicated segment of the recording wells in each 384 plate were dedicated to having only vehicle exposure. These vehicle-only recordings were used to correct for any apparent "run-up" or "run-down" in the experiment. Normalized Inhibition(NormVEH) = (VEH Valueend CPD period)/(VEH Valueend Control Period) [formula]
The adjusted inhibition was calculated as follows: % Inhibitioncorrected = 100 × (NormCPD −NormVEH)/(100−NormVEH) [formula]
Percent inhibition was determined and IC50 values were calculated using a 4 parameter logistic model within XLFit Software (IDBS, Boston MA): %Inhibitioncorrected = A + ((B−A))/((1 + (((x)/(C)))^D) [formula] where A and B are the maximal and minimum inhibition respectively, C is the IC50 concentration and D is the (Hill) slope.
A general note: Patch clamp records ionic current or voltage across a cell membrane.
Regarding `Cc1c(C(C)(F)F)nn(CC2(C)CCC(F)(F)C2)c1C(=O)Nc1cc[n+]([O-])c(C(N)=O)c1` (single isomer, unassigned) [Example 5a, 2-carbamoyl-4-(1-((3,3-difluoro-1-methylcyclopentyl)methyl)-3-(1,1-difluoroethyl)-4-methyl-1H-pyrazole-5-carboxamido)pyridine 1-oxide], the IC50 is at most 100 nM.
On to `Cc1c(C(C)(F)F)nn(C[C@@H]2CCC(F)(F)C2)c1C(=O)Nc1cc[n+]([O-])c(C(N)=O)c1` [Example 1a, (R)-2-Carbamoyl-4-(1-((3,3-difluorocyclopentyl)methyl)-3-(1,1-difluoroethyl)-4-methyl-1H-pyrazole-5-carboxamido)pyridine 1-oxide], for which the IC50 is 100 to 1000 nM.
Consider `Cc1c(C(C)(F)F)nn(C[C@H]2CCC(F)(F)C2)c1C(=O)Nc1cc[n+]([O-])c(C(N)=O)c1` [Example 1b, (S)-2-Carbamoyl-4-(1-((3,3-difluorocyclopentyl)methyl)-3-(1,1-difluoroethyl)-4-methyl-1H-pyrazole-5-carboxamido)pyridine 1-oxide], for which the IC50 was 100 to 1000 nM.
For `Cc1c(C(C)(F)F)nn(CC2CC(F)(F)C2)c1C(=O)Nc1cc[n+]([O-])c(C(N)=O)c1` [Example 3, 2-carbamoyl-4-(1-((3,3-difluorocyclobutyl)methyl)-3-(1,1-difluoroethyl)-4-methyl-1H-pyrazole-5-carboxamido)pyridine 1-oxide], the IC50 lay within 100 to 1000 nM.
Regarding `Cc1c(C(C)(F)F)nn(CC2(C)CC(F)(F)C2)c1C(=O)Nc1cc[n+]([O-])c(C(N)=O)c1` [Example 4, 2-carbamoyl-4-(1-((3,3-difluoro-1-methylcyclobutyl)methyl)-3-(1,1-difluoroethyl)-4-methyl-1H-pyrazole-5-carboxamido)pyridine 1-oxide], the concentration for half-maximal inhibition (IC50) is at most 100 nM.
Regarding `CC(F)(F)c1nn(CC2CC(F)(F)C2)c(C(=O)Nc2ccnc(C(=O)O)c2)c1C(F)(F)F` [Example 7, 4-(1-((3,3-difluorocyclobutyl)methyl)-3-(1,1-difluoroethyl)-4-(trifluoromethyl)-1H-pyrazole-5-carboxamido)picolinic acid], the IC50 lay within 1000 to 10000 nM.
On to `CC(F)(F)c1nn(CC2CC(F)(F)C2)c(C(=O)Nc2ccc(C(=O)O)nc2)c1C(F)(F)F` [Example 8, 5-(1-((3,3-difluorocyclobutyl)methyl)-3-(1,1-difluoroethyl)-4-(trifluoromethyl)-1H-pyrazole-5-carboxamido)picolinic acid], for which the IC50 is 100 to 1000 nM.
As for `O=C(O)c1cc(NC(=O)c2c(C(F)(F)F)c(C3CC3)nn2CC2CCC(F)(F)CC2)ccn1` [Example 9, 4-(3-cyclopropyl-1-((4,4-difluorocyclohexyl)methyl)-4-(trifluoromethyl)-1H-pyrazole-5-carboxamido)picolinic acid], the IC50 fell in the range of 100 to 1000 nM.
For the compound `CP(C)(=O)c1cc(NC(=O)c2c(C(F)(F)F)cnn2CC2CCCCC2)ccn1` [Example 10, 1-(cyclohexylmethyl)-N-(2-(dimethylphosphoryl)pyridin-4-yl)-4-(trifluoromethyl)-1H-pyrazole-5-carboxamide], the IC50 is 100 to 1000 nM.

The IC50 is the concentration at which inhibition is half-maximal.
